Laboratory results from PubChem BioAssay AID1057 (University of Pittsburgh Molecular Library Screening Center, 2008).
Active and inactive are the calls of the source. How the calls were made is not given here.

Target: Serine/threonine-protein kinase PLK1 (Homo sapiens) (UniProt P53350)
Experiment: PLK1 polo-box domain peptide-binding inhibitors, SAR follow-up, biochemical, fluorescence polarization, synthesized analogs, concentration response (AID 1057)
Conditions: Plk1 PBD fluorescence polarization peptide binding

Serine/threonine-protein kinase PLK1 (Homo sapiens), sequence (P53350 whole entry, looked up, the tested form may be a part): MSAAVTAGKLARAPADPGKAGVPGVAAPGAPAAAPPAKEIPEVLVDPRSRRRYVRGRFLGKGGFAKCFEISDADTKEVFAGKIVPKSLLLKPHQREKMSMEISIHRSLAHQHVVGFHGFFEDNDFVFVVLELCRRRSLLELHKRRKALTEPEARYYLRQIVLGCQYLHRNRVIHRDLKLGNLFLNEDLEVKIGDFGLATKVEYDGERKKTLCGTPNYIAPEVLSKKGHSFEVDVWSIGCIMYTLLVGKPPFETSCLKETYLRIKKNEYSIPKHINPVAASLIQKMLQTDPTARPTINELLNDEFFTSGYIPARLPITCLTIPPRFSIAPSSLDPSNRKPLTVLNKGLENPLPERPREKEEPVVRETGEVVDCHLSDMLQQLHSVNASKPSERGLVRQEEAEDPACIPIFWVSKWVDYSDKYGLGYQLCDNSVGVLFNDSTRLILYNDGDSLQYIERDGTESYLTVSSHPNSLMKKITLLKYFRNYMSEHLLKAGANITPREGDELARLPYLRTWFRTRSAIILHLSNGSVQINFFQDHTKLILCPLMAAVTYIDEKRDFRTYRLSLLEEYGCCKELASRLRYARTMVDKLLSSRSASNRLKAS

Row | SMILES | IC50
1 | C/C(=N\NC(=O)c1ccncc1)c1c(O)[nH]c(=O)[nH]c1=O | > 50 µM (inactive)
2 | CCOC(=O)CCCCCNC(=O)c1c(O)[nH]c(=O)[nH]c1=O | > 50 µM (inactive)
3 | Cc1cccc(N/N=C/c2c(O)[nH]c(=S)[nH]c2=O)c1 | > 50 µM (inactive)
